Measurements taken from patent US10653717B2, “Antibiotic compositions” (priority 2016, dated 2020).
Read-outs that look alike come from different tables or passages of the source.

How the values were obtained:
[1] = system: AB-1: Acinetobacter baumannii H#; assay: MIC of silver with antibiotics on clinical isolated MDR Gram-negative bacteria; type: cell-based; conditions: antibiotic 4 μM
Experimental: (§1) There are five clinically most difficult-to-treat MDR Gram-negative pathogen species: Klebsiella pneumonia, Acinetobacter baumannii, Pseudomonas aeruginosa, Enterobacter cloacae and Escherichia coli. One strain from each species was isolated, and overnight cultures were diluted 1:1000 times in LB medium, and treated with serial concentrations of Ag^+ and antibiotics in combinations for 24 h (Table 10).
(§2) Five clinical isolated MDR Gram-negative strains were grown until an OD600 nm of 0.4, and were diluted 1:1,000 into 100 μl LB medium in 96 micro-well plates. […] The cultures treated with the same serial dilutions of 100 μl ebselen and silver nitrate were used as the positive control.

[2] = system: ECO-1: Escherichia coli 1139#; assay: as above; type: cell-based; conditions: antibiotic 4 μM
Experimental: as §1, §2

[3] = system: PA-1: Pseudomonas aeruginosa 1298#; assay: as above; type: cell-based; conditions: antibiotic 4 μM
Experimental: as §1, §2

E. coli DHB4 = assay: E. coli growth curves in 15 ml tubes, OD600 nm; type: cell-based, Escherichia coli
Experimental: The large scale growth inhibition of E. coli by Ag^+ with ebselen in combination was also observed in shaking testing 15 ml tubes. […] PI is a membrane-impermeable fluorescent dye that has been widely used to detect permeation of cell membrane and dead cells.
E. coli DHB4 cells were grown in 15 ml tubes until an OD600 nm of 0.4, and treated with 5 μM AgNO3 and serial concentration of ebselen (0, 20, 40, 80 μM) in combination. The survival of untreated E. coli was compared with the antibiotic-treated cells by measuring OD600 nm and counting the colonies. For colony formation assay, cells were harvested at 10 min, 1 h, 2 h, and 4 h by centrifugation at 6,000 rpm for 5 min and thoroughly washed 3 times with PBS. The cells were serially diluted in PBS, and 100 μl cultures were plated on LB plates. The colonies were counted after overnight incubation, and CFU/ml was calculated using the following formula: [(colonies)*(dilution factor)]/(amount plated).

E. coli TrxR [4] = target: T1, E. coli TrxR (Escherichia coli, UniProt P0A9P4); type: cell-based; set-up: endogenous in cells; host or cells: E. coli DHB4; conditions: Ag^+ or ebselen alone
Experimental: E. coli DHB4 cells were grown till the absorbance at OD600 nm, of 0.4 in LB medium, and the bacterial cells were treated with different dilutions of ebselen and AgNO3 for 10 min. Cells were harvested by centrifugation at 6,000 rpm for 5 min and thoroughly washed 3 times with PBS, then cells were re-suspended in lysis buffer (25 mM Tris.HCl, pH 7.5, 100 mM NaCl, 2.5 mM EDTA, 2.5 mM EGTA, 20 mM NaF, 1 mM Na3VO4, 20 mM sodium ß-glycerophosphate, 10 mM sodium pyrophosphate, 0.5% Triton X-100) containing protease inhibitor cocktail and lysed by sonication. The cell lysates were obtained by centrifugation at 13,000 rpm for 20 min and the protein concentration was measured by Lowry protein assay (Bio-Rad DC™).
E. coli DHB4 TrxR activity in cell extracts was measured by a DTNB reduction activity assay.
E. coli DHB4 cells were grown till the absorbance at OD600 nm of 0.4 in LB medium, and the bacterial cells were treated with 80 μM antibiotics and 5 μM AgNO3 for 10 and 60 min, respectively. The cultures treated with 80 μM ebselen and 5 μM AgNO3 were used as the positive control. […] The cell lysates were obtained by centrifugation at 13,000 rpm for 20 min and the protein concentrations were measured by the Lowry protein assay.
E. coli DHB4 TrxR activity in cell extracts was measured by a DTNB reduction activity assay^23.
Target sequence in this assay (P0A9P4 whole entry): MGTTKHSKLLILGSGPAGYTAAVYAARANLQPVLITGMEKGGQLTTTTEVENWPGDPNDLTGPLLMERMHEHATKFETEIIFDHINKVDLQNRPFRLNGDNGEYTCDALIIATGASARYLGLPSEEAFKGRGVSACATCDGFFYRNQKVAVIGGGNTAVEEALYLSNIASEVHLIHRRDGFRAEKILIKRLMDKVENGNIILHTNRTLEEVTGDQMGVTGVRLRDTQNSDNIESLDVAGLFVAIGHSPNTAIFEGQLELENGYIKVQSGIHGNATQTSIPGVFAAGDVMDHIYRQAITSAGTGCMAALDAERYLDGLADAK

AB-2: A. baumannii 0361# = system: AB-2: A. baumannii 0361#
Experimental: (§3) There are five most difficult-to-treat MDR Gram-negative pathogen species in the clinic, which are also typical GSH-positive bacteria: Klebsiella pneumonia, Acinetobacter baumannii, Pseudomonas aeruginosa, Enterobacter cloacae and Escherichia coli. Two strains of each species were isolated, overnight cultures were diluted 1:1000 times in LB medium, and treated with Ag^+ with a serial concentration of ebselen in combination for 16 h. […] Among these five species, A. baumannii and E. cloacae are very readily formed drug-resistant strains, which are needed to be treated by or the fourth-generation cephalosporin in the clinic, including imipenem, cefepime, and cefotaxime, etc.
(§4) Ten clinical isolated MDR Gram-negative (GSH-positive) strains were grown until an OD600 nm of 0.4 and were diluted 1:100 into 100 μl of LB medium in 96 micro-well plates. Serial dilutions of 100 μl ebselen and AgNO3 were added to the individual wells. […] The culture treated with 0.8% (v/v) DMSO was used as a control.

[5] = system: ECL-1: Enterobacter cloacae 0431#
Experimental: as §3, §4

ECL-2: E. cloacae 2301# = system: ECL-2: E. cloacae 2301#
Experimental: as §3, §4

E. coli Trx1 = E. coli Trx1 (Escherichia coli, UniProt P0AA25)
Experimental: (§5) Since ebselen is a known reversible competitive inhibitor of bacterial TrxR, the effect of Ag^+ on the activity of E. coli TrxR and Trx was investigated.
(§6) Inhibition of recombinant bacterial TrxR by Silver was performed by using E. coli enzyme. The experiments were performed with 96 micro-well plates in the solution containing 50 mM Tris.HCl (pH 7.5), 200 μM NADPH, 1 mM EDTA, 1 mM DTNB, in the presence of 5 μM E. coli Trx. The absorbance at 412 nm was measured for 5 min with a VERSA micro-well plate reader and the slope of initial 2 min was used to represent TrxR activity. The Trx activity was detected by this method, coupled with the use of 100 nM E. coli TrxR instead of 5 μM E. coli Trx in the reaction mixture.

E. coli TrxR [6] = target: T1, E. coli TrxR
Experimental: as §5, §6
Target sequence in this assay (P0A9P4 2-321 limits assumed): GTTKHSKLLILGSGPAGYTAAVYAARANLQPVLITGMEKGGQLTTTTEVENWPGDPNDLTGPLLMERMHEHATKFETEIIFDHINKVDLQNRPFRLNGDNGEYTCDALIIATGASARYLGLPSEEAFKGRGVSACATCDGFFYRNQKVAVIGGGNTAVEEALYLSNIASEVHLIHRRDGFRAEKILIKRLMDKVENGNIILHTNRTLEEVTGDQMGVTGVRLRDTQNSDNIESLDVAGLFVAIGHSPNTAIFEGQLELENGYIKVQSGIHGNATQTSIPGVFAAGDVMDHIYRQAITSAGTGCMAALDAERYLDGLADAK

[7] = 40 μM ebselen or 5 μM Ag^+ alone

Sequence of E. coli Trx1 (P0AA25 2-109): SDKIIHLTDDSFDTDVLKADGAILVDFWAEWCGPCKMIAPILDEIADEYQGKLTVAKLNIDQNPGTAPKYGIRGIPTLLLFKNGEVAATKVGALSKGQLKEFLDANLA

O=c1c2ccccc2[se]n1-c1ccccc1 [ebselen, 2-phenyl-1,2-benzisoselenazol-3(2H)-one]
MIC of silver in the presence of different antibiotics [1]: 10 µM
MIC of silver in the presence of different antibiotics [2]: 5 µM
MIC of silver in the presence of different antibiotics [3]: 20 µM
E. coli growth (OD600 nm) (E. coli DHB4; [7]): did not inhibit bacterial growth
E. coli growth (OD600 nm) (E. coli DHB4; 80 μM ebselen alone, back to normal 12 h post-treatment): could inhibit E. coli growth in first 8 h
TrxR activities in cell extracts (E. coli TrxR [4]): not influenced

O=[N+]([O-])[O-].[Ag+] [silver, silver nitrate]
MIC of silver in the presence of ebselen (AB-2: A. baumannii 0361#; Ebselen 0 μM): 80 µM
MIC of silver in the presence of ebselen (AB-2: A. baumannii 0361#; Ebselen 1 μM): 80 µM
MIC of silver in the presence of ebselen (AB-2: A. baumannii 0361#; Ebselen 2 μM): 40 µM
MIC of silver in the presence of ebselen (AB-2: A. baumannii 0361#; Ebselen 4 μM): 20 µM
MIC of silver in the presence of ebselen ([5]; Ebselen 0 μM): 80 µM
MIC of silver in the presence of ebselen ([5]; Ebselen 1 μM): 40 µM
MIC of silver in the presence of ebselen ([5]; Ebselen 2 μM): 20 µM
MIC of silver in the presence of ebselen ([5]; Ebselen 4 μM): 20 µM
MIC of silver in the presence of ebselen (ECL-2: E. cloacae 2301#; Ebselen 0 μM): 80 µM
MIC of silver in the presence of ebselen (ECL-2: E. cloacae 2301#; Ebselen 1 μM): 40 µM
MIC of silver in the presence of ebselen (ECL-2: E. cloacae 2301#; Ebselen 2 μM): 40 µM
MIC of silver in the presence of ebselen (ECL-2: E. cloacae 2301#; Ebselen 4 μM): 10 µM
E. coli growth (OD600 nm) (E. coli DHB4; [7]): did not inhibit bacterial growth
reversibility of the inhibition of Trx1 (E. coli Trx1; Trx1 activity after desalting): irreversible
activity of Trx (E. coli Trx1; along with the increase of Ag^+ concentration, 10 μM Trx1): decreased
inhibitory efficiency toward TrxR (E. coli TrxR [6]; in the presence of reduced E. coli Trx1): decreased
IC50 (E. coli TrxR [6]; read-out: IC50 on E. coli TrxR, 100 nM NADPH-pre-incubated E. coli TrxR): ~50 nM
TrxR activities in cell extracts (E. coli TrxR [4]): not influenced
